Measurements as given in paper PMC12649549, “Sequence Permutation Generated Lysine and Tryptophan-Rich Antimicrobial Peptides with Enhanced Therapeutic Index” (Antibiotics, 2025).
Read-outs that look alike come from different tables or passages of the source.

How the values were obtained:
[1] = system: Pseudomonas aeruginosa Migula (ATCC 27853)
Experimental: (§1) The antibacterial and salt-resistant activity of the peptides was tested using Escherichia coli (ATCC 25922), Pseudomonas aeruginosa Migula (ATCC 27853), Acinetobacter sp. (BCRC number 14B0091, BCRC number 14B0097, and BCRC number 14B0100), and Staphylococcus aureus sp. strains (ATCC 25923, ATCC 33591, ATCC 33592, ATCC 33593, and ATCC 6538). All bacteria were obtained from the Food Industry Research and Development Institute (Hsinchu, Taiwan) and cultured in sterilized Müller-Hinton (MH) broth at 37 °C and 200 rpm for 8 h. The inoculum concentrations were determined by measuring the optical density at 600 nm (OD 600 = 1, approximately 10^8 CFU/mL) using an Ultrospec 2100 pro UV-Visible spectrophotometer (Biochrom Ltd., Cambridge, UK) after 8 h of culture.
(§2) The antibacterial activities of the peptides in Müller-Hinton (MH) broth and modified LYM broth were determined using the standard broth microdilution method as per Clinical and Laboratory Standards Institute (CLSI) guidelines. The LYM broth was prepared with specific components and adjusted to different conditions, including varying concentrations of NaCl and MgCl2, and different pH levels. To prepare the LYM broth, 5.4 mM KCl, 5.6 mM Na2HPO4, 0.5 mM MgSO4, and 1.0 mM sodium citrate were added. Additionally, 0.4 mg of ZnCl2, 2.0 mg of FeCl3·6H2O, 0.1 mg of CuSO4·5H2O, 0.1 mg of MnSO4·H2O, 0.1 mg of Na2B4O7∙10H2O, 700 mg of amino acid mixtures without tryptophan (Takara Bio Inc., San Jose, CA, USA), and 20 mg of L-tryptophan were added per liter of medium. The pH was adjusted to 7.4, and a vitamin mixture (100X, Sigma) and glucose concentration of 2% were added. For different conditions of LYM broth, NaCl concentrations of 300, 200, 150, and 50 mM, MgCl2 concentrations of 2.5, 1.5, and 0.5 mM, and pH levels of 6.5, 5.5, and 4.5 were adjusted. Bacterial strains were incubated in MH broth overnight, regrown, and diluted to a final concentration of 5 × 10^5 CFU/mL. Peptides were added to each well at final concentrations of 50, 25, 12.5, 6.25, 3.13, 1.56, and 0.78 µg/mL, and 99 µL of diluted microbes was loaded into each well of a polypropylene 96-well plate. […] The Morpheus HeatMap software (https://software.broadinstitute.org/morpheus/) was used to display MIC values on a color scale. All experiments were independently repeated three times.

S. aureus ATCC 6538 = system: S. aureus ATCC 6538
Experimental: as §1, §2

[2] = system: A. baumannii 14B00100 (Acinetobacter sp., BCRC number 14B0100)
Experimental: as §1, §2

S. aureus ATCC 33592 = system: S. aureus ATCC 33592
Experimental: as §1
as §2, with “For different conditions of LYM broth, NaCl concentrations of 300, 200, 150, and 50 mM, MgCl2 concentrations of 2.5, 1.5, and 0.5 mM, and pH levels of 6.5, 5.5, and 4.5 were adjusted.” left out

Gram-negative bacteria = assay: Geometric mean MIC and therapeutic index, Gram-negative bacteria; assay type: cell-based; conditions: for Therapeutic Index (TI) G−: HC10/GM
Experimental: In this study, we aimed to investigate the potential of W5K series peptides for therapeutic use. To evaluate their efficacy for antibacterial therapy, we used the Therapeutic Index (TI) as a measure of their cell selectivity. The TI was calculated as the ratio of the concentration causing 10% hemolysis of human red blood cells (HC10) to the geometric mean minimum inhibitory concentration (GM) of the peptides against both Gram-negative and Gram-positive bacteria. This parameter was used to quantitatively assess the balance between antibacterial potency and cytotoxicity among the W5K derivatives.
as §2

[3] = LYM broth, 0 mM NaCl, 16 h, 37 °C
[4] = LYM broth, 50 mM NaCl, 16 h, 37 °C
[5] = LYM broth, 100 mM NaCl, 16 h, 37 °C
[6] = LYM broth, 200 mM (NaCl), 16 h, 37 °C
[7] = LYM broth, 300 mM (NaCl), 16 h, 37 °C
[8] = MH broth, 5 × 10^5 CFU/mL, 16 h, 37 °C, repeated three times

Substance: Ac-RKWLKWLAKKKKW-NH2 [Peptide W5K03]
- MIC [1, 3]: 6.25 µg/mL
- MIC ([1]; LYM broth, 0.5 mM MgCl2): 6.25 µg/mL
- MIC ([1]; LYM broth, 1.5 mM MgCl2): 12.5 µg/mL
- MIC ([1]; LYM broth, 2.5 mM MgCl2): 12.5 µg/mL
- MIC [1, 4]: 12.5 µg/mL
- MIC [1, 5]: 25 µg/mL
- MIC [1, 6]: 25 µg/mL
- MIC [1, 7]: >50 µg/mL
- MIC ([1]; LYM broth, pH 4.5): 12.5 µg/mL
- MIC ([1]; LYM broth, pH 5.5): 6.25 µg/mL
- MIC ([1]; LYM broth, pH 6.5): 3.13 µg/mL
- MIC [1, 8]: 50 µg/mL
- MIC (S. aureus ATCC 6538; [3]): 1.56 µg/mL
- MIC (S. aureus ATCC 6538; LYM broth, 0.5 mM MgCl2): 3.13 µg/mL
- MIC (S. aureus ATCC 6538; LYM broth, 1.5 mM MgCl2): 3.13 µg/mL
- MIC (S. aureus ATCC 6538; LYM broth, 2.5 mM MgCl2): 6.25 µg/mL
- MIC (S. aureus ATCC 6538; [4]): 3.13 µg/mL
- MIC (S. aureus ATCC 6538; [5]): 6.25 µg/mL
- MIC (S. aureus ATCC 6538; [6]): 12.5 µg/mL
- MIC (S. aureus ATCC 6538; [7]): 25 µg/mL
- MIC (S. aureus ATCC 6538; LYM broth, pH 4.5): 6.25 µg/mL
- MIC (S. aureus ATCC 6538; LYM broth, pH 5.5): 3.13 µg/mL
- MIC (S. aureus ATCC 6538; LYM broth, pH 6.5): 3.13 µg/mL
- MIC (S. aureus ATCC 6538; [8]): 25 µg/mL
- MIC [2, 3]: 1.56 µg/mL
- MIC ([2]; LYM broth, 0.5 mM MgCl2): 3.13 µg/mL
- MIC ([2]; LYM broth, 1.5 mM MgCl2): 3.13 µg/mL
- MIC ([2]; LYM broth, 2.5 mM MgCl2): 3.13 µg/mL
- MIC [2, 4]: 3.13 µg/mL
- MIC [2, 5]: 3.13 µg/mL
- MIC [2, 6]: 6.25 µg/mL
- MIC [2, 7]: 12.5 µg/mL
- MIC ([2]; LYM broth, pH 4.5): 1.56 µg/mL
- MIC ([2]; LYM broth, pH 5.5): 1.56 µg/mL
- MIC ([2]; LYM broth, pH 6.5): 1.56 µg/mL
- MIC [2, 8]: 12.5 µg/mL
- MIC (S. aureus ATCC 33592; [3]): 25 µg/mL
- MIC (S. aureus ATCC 33592; LYM broth, 0.5 mM MgCl2): 25 µg/mL
- MIC (S. aureus ATCC 33592; LYM broth, 1.5 mM MgCl2): 25 µg/mL
- MIC (S. aureus ATCC 33592; LYM broth, 2.5 mM MgCl2): 25 µg/mL
- MIC (S. aureus ATCC 33592; [4]): 25 µg/mL
- MIC (S. aureus ATCC 33592; [5]): 50 µg/mL
- MIC (S. aureus ATCC 33592; [6]): >50 µg/mL
- MIC (S. aureus ATCC 33592; [7]): >50 µg/mL
- MIC (S. aureus ATCC 33592; LYM broth, pH 4.5): 25 µg/mL
- MIC (S. aureus ATCC 33592; LYM broth, pH 5.5): 12.5 µg/mL
- MIC (S. aureus ATCC 33592; LYM broth, pH 6.5): 12.5 µg/mL
- MIC (S. aureus ATCC 33592; [8]): >50 µg/mL
- GM G− (geometric mean of the MIC values) (Gram-negative bacteria; Gram-negative bacteria, MH broth, MIC >50 µg/mL counted as 100 µg/mL): 16.5 µg/mL
- Therapeutic Index (TI) G− (Gram-negative bacteria; Gram-negative bacteria): 6.6

Substance: Ac-KKKKWRKWLKWLA-NH2 [Peptide W5K11]
- MIC [1, 3]: 1.56 µg/mL
- MIC ([1]; LYM broth, 0.5 mM MgCl2): 1.56 µg/mL
- MIC ([1]; LYM broth, 1.5 mM MgCl2): 1.56 µg/mL
- MIC ([1]; LYM broth, 2.5 mM MgCl2): 3.13 µg/mL
- MIC [1, 4]: 1.56 µg/mL
- MIC [1, 5]: 1.56 µg/mL
- MIC [1, 6]: 3.13 µg/mL
- MIC [1, 7]: 6.25 µg/mL
- MIC ([1]; LYM broth, pH 4.5): 1.56 µg/mL
- MIC ([1]; LYM broth, pH 5.5): 1.56 µg/mL
- MIC ([1]; LYM broth, pH 6.5): 1.56 µg/mL
- MIC [1, 8]: 3.13 µg/mL
- MIC (S. aureus ATCC 6538; [3]): 1.56 µg/mL
- MIC (S. aureus ATCC 6538; LYM broth, 0.5 mM MgCl2): 1.56 µg/mL
- MIC (S. aureus ATCC 6538; LYM broth, 1.5 mM MgCl2): 1.56 µg/mL
- MIC (S. aureus ATCC 6538; LYM broth, 2.5 mM MgCl2): 1.56 µg/mL
- MIC (S. aureus ATCC 6538; [4]): 1.56 µg/mL
- MIC (S. aureus ATCC 6538; [5]): 3.13 µg/mL
- MIC (S. aureus ATCC 6538; [6]): 3.13 µg/mL
- MIC (S. aureus ATCC 6538; [7]): 6.25 µg/mL
- MIC (S. aureus ATCC 6538; LYM broth, pH 4.5): 3.13 µg/mL
- MIC (S. aureus ATCC 6538; LYM broth, pH 5.5): 1.56 µg/mL
- MIC (S. aureus ATCC 6538; LYM broth, pH 6.5): 1.56 µg/mL
- MIC (S. aureus ATCC 6538; [8]): 3.13 µg/mL
- MIC [2, 3]: 0.78 µg/mL
- MIC ([2]; LYM broth, 0.5 mM MgCl2): 1.56 µg/mL
- MIC ([2]; LYM broth, 1.5 mM MgCl2): 1.56 µg/mL
- MIC ([2]; LYM broth, 2.5 mM MgCl2): 1.56 µg/mL
- MIC [2, 4]: 0.78 µg/mL
- MIC [2, 5]: 0.78 µg/mL
- MIC [2, 6]: 0.78 µg/mL
- MIC [2, 7]: 0.78 µg/mL
- MIC ([2]; LYM broth, pH 4.5): 1.56 µg/mL
- MIC ([2]; LYM broth, pH 5.5): 1.56 µg/mL
- MIC ([2]; LYM broth, pH 6.5): 1.56 µg/mL
- MIC [2, 8]: 1.56 µg/mL
- MIC (S. aureus ATCC 33592; [3]): 3.13 µg/mL
- MIC (S. aureus ATCC 33592; LYM broth, 0.5 mM MgCl2): 3.13 µg/mL
- MIC (S. aureus ATCC 33592; LYM broth, 1.5 mM MgCl2): 3.13 µg/mL
- MIC (S. aureus ATCC 33592; LYM broth, 2.5 mM MgCl2): 3.13 µg/mL
- MIC (S. aureus ATCC 33592; [4]): 3.13 µg/mL
- MIC (S. aureus ATCC 33592; [5]): 3.13 µg/mL
- MIC (S. aureus ATCC 33592; [6]): 3.13 µg/mL
- MIC (S. aureus ATCC 33592; [7]): 6.25 µg/mL
- MIC (S. aureus ATCC 33592; LYM broth, pH 4.5): 3.13 µg/mL
- MIC (S. aureus ATCC 33592; LYM broth, pH 5.5): 3.13 µg/mL
- MIC (S. aureus ATCC 33592; LYM broth, pH 6.5): 1.56 µg/mL
- MIC (S. aureus ATCC 33592; [8]): 6.25 µg/mL
- GM G− (geometric mean of the MIC values) (Gram-negative bacteria): 2.1 µg/mL
- Therapeutic Index (TI) G− (Gram-negative bacteria; Gram-negative bacteria): 34.5
